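Dose response: 5 concentrations. Exposure: 48 h. Format: 96-well plates. Endpoint: linear interpolation; highest concentration if not reached. GI50 = concentration required for 50% inhibition of growth. The concentration for full growth arrest is given as TGI.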
Legend:
Assay in all cases: NCI tumour cell line growth inhibition, 48 h
OVCAR-3 ovarian = tested on: OVCAR-3 ovarian
SK-MEL-28 melanoma = tested on: SK-MEL-28 melanoma
786-0 renal = tested on: 786-0 renal
SK-OV-3 ovarian = tested on: SK-OV-3 ovarian
LOX IMVI melanoma = tested on: LOX IMVI melanoma
SF-539 CNS = tested on: SF-539 CNS
ACHN renal = tested on: ACHN renal
RXF 393 renal = tested on: RXF 393 renal
NCI-H226 lung = tested on: NCI-H226 lung
HCT-15 colon = tested on: HCT-15 colon

Structure (SMILES) | TGI (OVCAR-3 ovarian) [µM] | TGI (SK-MEL-28 melanoma) [µM] | TGI (786-0 renal) [µM] | TGI (SK-OV-3 ovarian) [µM] | TGI (LOX IMVI melanoma) [µM] | TGI (SF-539 CNS) [µM] | TGI (ACHN renal) [µM] | TGI (RXF 393 renal) [µM] | TGI (NCI-H226 lung) [µM] | TGI (HCT-15 colon) [µM] | GI50 (OVCAR-3 ovarian) [µM] | GI50 (HCT-15 colon) [µM] | GI50 (SK-MEL-28 melanoma) [µM] | GI50 (786-0 renal) [µM] | GI50 (SK-OV-3 ovarian) [µM] | GI50 (LOX IMVI melanoma) [µM] | GI50 (SF-539 CNS) [µM] | GI50 (RXF 393 renal) [µM] | GI50 (ACHN renal) [µM] | GI50 (NCI-H226 lung) [µM]
COc1ccc(OCC(=O)O)c2c1CCC(C(C)C)C2=O (stereo not drawn) | > 100 | > 100 | > 100 | > 100 | > 100 | > 100 | > 100 |  |  |  |  |  |  |  |  |  |  |  |  | 
CC(C)C(C(=O)O)N(CC1(O)OCC(O)C(O)C1O)N=O (stereo not drawn) | > 100 | > 100 | > 100 | > 100 | > 100 | > 100 | > 100 | > 100 |  |  |  |  |  |  |  |  |  |  |  | 
CCCCCCCCCCCCCS(=O)(=O)O | > 100 | > 100 | > 100 |  | > 100 | > 100 | > 100 | > 100 | > 100 | > 100 |  |  |  |  |  |  |  |  |  | 
CC(C)(C)[OH+][O-].[O-]c1ccc(Cl)cc1C=Nc1ccc(Cl)cc1[O-].[O]=[V] | 40.5 | 53.8 | 27.1 | 46.6 | 25.9 | 32.5 | 48 | 36.6 |  | > 100 | 13.5 | 21.8 | 19.2 | 3.73 | 19.6 | 5.9 | 17.8 | 17.3 | 16.2 | 
CN/N=C(/Cc1occc(=O)c1O)C(=O)Nc1ccc(C)c(C)c1 | > 100 | > 100 | > 100 | > 100 | > 100 | > 100 | > 100 |  | > 100 | > 100 |  |  |  |  |  |  |  |  |  | 
C/C(=N\NC(=S)N1CCCCCC1)c1nccnc1C |  | > 100 | > 100 |  | > 100 | 1.65 | 3.24 | 7.06 |  | > 100 |  |  |  |  |  |  |  |  |  | 
CC(O)C1OC(O)C2OC(C)(C)OC12 (stereo not drawn) | > 100 | > 100 | > 100 | > 100 | > 100 | > 100 | > 100 |  | > 100 | > 100 |  |  |  |  |  |  |  |  |  | 
O=P(c1ccccc1)(c1ccccc1)C1CC=C(c2ccccc2)C2(CCCC2)C1 (stereo not drawn) | > 100 | > 100 | > 100 | > 100 | > 100 | > 100 |  | > 100 | > 100 | > 100 |  |  |  |  |  |  |  |  |  | 
COc1ccc2[nH]cc(CCNC(C)=O)c2c1 | > 100 | > 100 | > 100 | > 100 | > 100 | > 100 | > 100 | > 100 |  | > 100 |  |  |  |  |  |  |  |  |  | 
CN(C)/[N+]([O-])=N/Oc1cc(Nc2cccc(C(=O)O)c2)c([N+](=O)[O-])cc1[N+](=O)[O-] | 22.7 | > 100 | > 100 |  | > 100 | > 100 | > 100 | > 100 | > 100 | > 100 | 5.45 | > 100 | > 100 | > 100 |  | 38.5 | > 100 | > 100 | > 100 | > 100
O=C(Cc1nc2ccccc2s1)C(=O)Nc1ccc(Cl)cc1 | > 100 | > 100 | > 100 | > 100 | > 100 | > 100 | > 100 |  | > 100 | > 100 |  |  |  |  |  |  |  |  |  | 
CNc1ccccc1C(=O)N/N=C/C=C/c1ccccc1 | > 100 | > 100 | > 100 | > 100 | > 100 | 4.91 | > 100 |  | > 100 | > 74.1 | 0.563 | 0.457 | 6.88 | 15.6 | 4.15 | 1.34 | 1.09 |  | 11.8 | 10
CSC(=S)c1ccc(C(=S)SC)cc1 | > 100 |  | > 100 | > 100 | > 100 | > 100 |  | > 100 | > 100 | > 100 |  |  |  |  |  |  |  |  |  | 
CC/C=C\C[C@H](O)C/C=C1/C(=O)C=C[C@@H]1C/C=C\CCCC(=O)NC(C)C | 8.41 | 4.98 | 5.4 | 14.8 | 2.5 |  | 3.49 | 3.94 | 4.74 | 4.92 | 2.63 | 2.02 | 2.14 | 2.47 | 4.57 | 1.06 |  | 2.14 | 1.84 | 2.31
C/C(CN1C(=O)c2ccccc2C1=O)=N\NS(=O)(=O)c1cccc([N+](=O)[O-])c1 | > 100 | > 100 | > 100 | > 100 |  | > 100 | > 100 | > 100 | > 100 | > 100 |  |  |  |  |  |  |  |  |  | 
Cc1ccc(C)c(NC(=O)C(=O)C(c2cnc3ccc([N+](=O)[O-])cc3n2)[N+](=O)[O-])c1 (stereo not drawn) | > 100 | > 100 | > 100 | > 100 |  | > 100 | > 100 | > 100 | > 100 | > 100 |  |  |  |  |  |  |  |  |  | 
CC(=O)N1CCC2(C=Nc3ccccc32)CC1 | > 100 | > 100 | > 100 | > 100 | > 100 | > 100 | > 100 |  |  | > 100 |  |  |  |  |  |  |  |  |  | 
Oc1cccc2c1NC1=C(CCC/C1=C\c1ccccc1)C2 | > 100 | > 100 | > 100 | > 100 | > 100 | > 100 | > 100 |  | > 100 | > 100 |  |  |  |  |  |  |  |  |  | 
CC(=O)Nc1ccc(/C=C(\NC(=O)c2ccccc2)c2nc3ccc4c(c3[nH]2)C(=O)c2ccccc2C4=O)cc1 | > 100 | > 100 | > 100 | > 100 | > 100 | > 100 |  | 49.1 | > 100 | > 100 |  |  |  |  |  |  |  |  |  | 
CCNc1nnc(CSc2nc(-c3ccccc3)c(-c3ccccc3)[nH]2)s1 | 37.1 | 36.1 | 56.6 | 41.7 | 31.1 | 33.2 | 74.6 |  | 35 | 43.8 |  |  |  |  |  |  |  |  |  | 
CN(C)c1ccc(-c2cc(=O)c3ccccc3[nH]2)cc1 | > 100 | > 100 | > 100 |  | > 100 | > 100 | > 100 | > 100 | > 100 | > 100 |  |  |  |  |  |  |  |  |  | 
